In ChEMBL document CHEMBL1828583, “Discovery process and pharmacological characterization of a novel dual orexin 1 and orexin 2 receptor antagonist useful for treatment of sleep disorders” (Bioorg Med Chem Lett, 2011):
Active and inactive are the calls of the source. The rule behind the calls is not given here.

Key:
Orexin receptor type 2 [1] = target: T1, Orexin receptor type 2 (Homo sapiens, UniProt O43614); assay: Antagonist activity at recombinant human OX2R expressed in CHO cells by FLIPR calcium based functional assay; format: cell-based
T1 sequence (O43614 whole entry): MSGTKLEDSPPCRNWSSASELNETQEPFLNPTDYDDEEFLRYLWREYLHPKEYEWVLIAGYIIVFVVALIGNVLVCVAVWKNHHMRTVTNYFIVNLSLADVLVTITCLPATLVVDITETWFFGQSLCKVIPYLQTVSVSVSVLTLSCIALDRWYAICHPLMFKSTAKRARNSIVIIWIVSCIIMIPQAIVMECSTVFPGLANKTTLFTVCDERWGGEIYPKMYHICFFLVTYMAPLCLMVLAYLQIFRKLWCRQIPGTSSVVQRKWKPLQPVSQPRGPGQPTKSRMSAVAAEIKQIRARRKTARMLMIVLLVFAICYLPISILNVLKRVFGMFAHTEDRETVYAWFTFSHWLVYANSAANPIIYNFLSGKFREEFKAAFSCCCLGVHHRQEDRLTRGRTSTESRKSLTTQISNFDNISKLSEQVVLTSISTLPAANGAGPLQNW

[2] = target: T2, Orexin/Hypocretin receptor type 1 (Homo sapiens, UniProt O43613); assay: Antagonist activity at recombinant human OX1R expressed in CHO cells by FLIPR calcium based functional assay; format: cell-based
T2 sequence (O43613 whole entry): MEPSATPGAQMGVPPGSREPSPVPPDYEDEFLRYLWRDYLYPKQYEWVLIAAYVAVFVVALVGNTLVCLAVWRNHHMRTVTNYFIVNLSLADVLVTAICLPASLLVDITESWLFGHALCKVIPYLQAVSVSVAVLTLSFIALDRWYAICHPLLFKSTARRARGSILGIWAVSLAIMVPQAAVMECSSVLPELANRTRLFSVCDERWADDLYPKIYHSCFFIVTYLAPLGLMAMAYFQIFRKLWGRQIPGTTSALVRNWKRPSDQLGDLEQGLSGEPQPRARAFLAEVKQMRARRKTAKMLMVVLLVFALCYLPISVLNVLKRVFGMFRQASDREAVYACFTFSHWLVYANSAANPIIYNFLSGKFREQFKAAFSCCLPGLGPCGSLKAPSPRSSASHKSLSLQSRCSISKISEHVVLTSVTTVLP

[3] = Ratio of drug level in brain to blood in CD rat at 1 mg/kg, iv after 1 hrs; format: ADME, organism-based; design: dose 1 mg/kg, route intravenous; conditions: read-out: BBR
Rattus norvegicus [4] = assay: Hypnotic activity in CD rat Circadian time model assessed as non-rapid eye movement sleep at 3 mg/kg, po administered during active phase measured from starting time CT18 (reference value: 78.1 +/- 11.3 mins); format: functional
Rattus norvegicus [5] = assay: Hypnotic activity in CD rat Circadian time model assessed as awake period at 3 mg/kg, po administered during active phase measured from starting time CT18 (reference value: 218 +/- 11.32 mins); format: functional
Rattus norvegicus [6] = assay: Hypnotic activity in CD rat Circadian time model assessed as non-rapid eye movement sleep at 30 mg/kg, po administered during active phase measured from starting time CT18 (reference value: 78.1 +/- 11.3 mins); format: functional
[7] = Cmax in CD rat at 1 mg/kg, iv and 3 mg/kg, po; format: ADME, organism-based; conditions: in vivo
Rattus norvegicus [8] = assay: Hypnotic activity in po dosed CD rat Circadian time model assessed as non-rapid eye movement latency period during active phase measured from starting time CT18; format: functional, organism-based
[9] = target: T3, Orexin/Hypocretin receptor type 1 (Rattus norvegicus, UniProt P56718); assay: Antagonist activity at recombinant rat OX1R expressed in CHO cells by FLIPR calcium based functional assay; format: cell-based
T3 sequence (P56718 whole entry): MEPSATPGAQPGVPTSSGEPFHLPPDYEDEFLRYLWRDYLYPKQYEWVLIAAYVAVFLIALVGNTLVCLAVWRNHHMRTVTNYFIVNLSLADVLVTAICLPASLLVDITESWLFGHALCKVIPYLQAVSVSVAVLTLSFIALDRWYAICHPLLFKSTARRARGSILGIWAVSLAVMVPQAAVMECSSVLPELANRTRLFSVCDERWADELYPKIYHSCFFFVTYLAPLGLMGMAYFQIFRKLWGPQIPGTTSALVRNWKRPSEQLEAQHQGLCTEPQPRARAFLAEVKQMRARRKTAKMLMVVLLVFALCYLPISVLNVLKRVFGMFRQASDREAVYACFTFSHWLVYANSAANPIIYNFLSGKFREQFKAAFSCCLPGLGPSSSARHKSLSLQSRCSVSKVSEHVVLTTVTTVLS

[10] = Oral bioavailability in CD rat at 3 mg/kg; format: ADME, organism-based; conditions: in vivo
Rattus norvegicus [11] = assay: Hypnotic activity in CD rat Circadian time model assessed as rapid eye movement sleep at 3 mg/kg, po administered during active phase measured from starting time CT18 (reference value: 3.22 +/- 0.73 mins); format: functional
Orexin receptor type 2 [12] = target: T1, Orexin receptor type 2; assay: Displacement of [3H]almorexant from recombinant human OX2R expressed in CHO cells; format: cell-based
Rattus norvegicus [13] = assay: Hypnotic activity in CD rat Circadian time model assessed as non-rapid eye movement latency period at 10 mg/kg, po administered during active phase measured from starting time CT18 (reference value: 46.1 +/- 10.0 mins); format: functional
[14] = Fraction unbound in CD rat brain at 1 mg/kg, iv after 1 hrs; format: ADME, organism-based; design: dose 1 mg/kg, route intravenous
Rattus norvegicus [15] = assay: Hypnotic activity in CD rat Circadian time model assessed as rapid eye movement sleep at 30 mg/kg, po administered during active phase measured from starting time CT18 (reference value: 3.22 +/- 0.73 mins); format: functional
Rattus norvegicus [16] = assay: Neurotoxicity in CD rat assessed as impairment of motor coordination at 1 to 10 mg/kg, po by rotarod test; format: toxicity, organism-based; design: dose 1-10 mg/kg, route oral; conditions: in vivo
Rattus norvegicus [17] = assay: Hypnotic activity in CD rat Circadian time model assessed as non-rapid eye movement latency period at 30 mg/kg, po administered during active phase measured from starting time CT18 (reference value: 46.1 +/- 10.0 mins); format: functional
Rattus norvegicus [18] = assay: Hypnotic activity in CD rat Circadian time model assessed as rapid eye movement latency period at 3 mg/kg, po administered during active phase measured from starting time CT18 (reference value: 146.3 +/- 54.2 mins); format: functional
Rattus norvegicus [19] = assay: Hypnotic activity in CD rat Circadian time model assessed as awake period at 10 mg/kg, po administered during active phase measured from starting time CT18 (reference value: 218 +/- 11.32 mins); format: functional
Rattus norvegicus [20] = assay: Hypnotic activity in CD rat Circadian time model assessed as rapid eye movement latency period at 10 mg/kg, po administered during active phase measured from starting time CT18 (reference value: 146.3 +/- 54.2 mins); format: functional
Rattus norvegicus [21] = assay: Hypnotic activity in CD rat Circadian time model assessed as non-rapid eye movement latency period at 3 mg/kg, po administered during active phase measured from starting time CT18 (reference value: 46.1 +/- 10.0 mins); format: functional
[22] = target: T4, Orexin/Hypocretin receptor type 1 (Rattus norvegicus) (UniProt P56718); assay: Agonist activity at recombinant rat OX1R expressed in CHO cells at 1 uM; format: functional, cell-based
T4 sequence (whole entry): T3 sequence (P56718 whole entry)

Rattus norvegicus [23] = assay: Hypnotic activity in CD rat Circadian time model assessed as rapid eye movement sleep at 10 mg/kg, po administered during active phase measured from starting time CT18 (reference value: 3.22 +/- 0.73 mins); format: functional
Rattus norvegicus [24] = assay: Hypnotic activity in CD rat Circadian time model assessed as rapid eye movement latency period at 30 mg/kg, po administered during active phase measured from starting time CT18 (reference value: 146.3 +/- 54.2 mins); format: functional
[25] = Half life in CD rat at 1 mg/kg, iv and 3 mg/kg, po; format: ADME, organism-based; conditions: in vivo
[26] = Volume of distribution at steady state in CD rat at 1 mg/kg, iv and 3 mg/kg, po; format: ADME, organism-based; conditions: in vivo, read-out: Vdss
[27] = Fraction unbound in CD rat plasma at 1 mg/kg, iv after 1 hrs; format: ADME, organism-based; design: dose 1 mg/kg, route intravenous
Rattus norvegicus [28] = assay: Hypnotic activity in CD rat Circadian time model assessed as non-rapid eye movement sleep at 10 mg/kg, po administered during active phase measured from starting time CT18 (reference value: 78.1 +/- 11.3 mins); format: functional
[29] = Plasma clearance in CD rat at 1 mg/kg, iv and 3 mg/kg, po; format: ADME, organism-based
Rattus norvegicus [30] = assay: Hypnotic activity in po dosed CD rat Circadian time model assessed as non-rapid eye movement sleep administered during active phase measured from starting time CT18; format: functional, organism-based
Rattus norvegicus [31] = assay: Hypnotic activity in CD rat Circadian time model assessed as total sleep time at 10 mg/kg, po administered during active phase (reference value: 81 +/- 11 mins); format: functional
Rattus norvegicus [32] = assay: Hypnotic activity in CD rat Circadian time model assessed as awake period at 30 mg/kg, po administered during active phase measured from starting time CT18 (reference value: 218 +/- 11.32 mins); format: functional
Rattus norvegicus [33] = assay: Neurotoxicity in CD rat assessed as impairment of motor coordination at 1 to 10 mg/kg, po by rotarod test in presence of 1 g/kg, ip ethanol; format: toxicity, organism-based; design: dose 1-10 mg/kg, route oral; conditions: in vivo
Rattus norvegicus [34] = assay: In vivo antagonist activity at OX1R in CD rat assessed as reduction of OX-A induced grooming dosed orally 3 hrs before OX-A injection measured after 1 hrs; format: functional, organism-based
[35] = target: T2, Orexin/Hypocretin receptor type 1; assay: Displacement of [3H]almorexant from recombinant human OX1R expressed in CHO cells; format: cell-based
[36] = target: T5, Orexin/Hypocretin receptor type 1 (Homo sapiens) (UniProt O43613); assay: Agonist activity at recombinant human OX1R expressed in CHO cells at 1 uM; format: functional, cell-based
T5 sequence (whole entry): T2 sequence (O43613 whole entry)

Liver microsomes = assay: Intrinsic clearance in human liver microsomes; format: ADME, Microsome
Rattus norvegicus [37] = assay: Hypnotic activity in po dosed CD rat Circadian time model assessed as total sleep time measured during active phase after 5 hrs; format: functional, organism-based
Orexin receptor type 2 [38] = target: T6, Orexin receptor type 2 (Rattus norvegicus, UniProt P56719); assay: Antagonist activity at recombinant rat OX2R expressed in CHO cells by FLIPR calcium based functional assay; format: cell-based
T6 sequence (P56719 whole entry): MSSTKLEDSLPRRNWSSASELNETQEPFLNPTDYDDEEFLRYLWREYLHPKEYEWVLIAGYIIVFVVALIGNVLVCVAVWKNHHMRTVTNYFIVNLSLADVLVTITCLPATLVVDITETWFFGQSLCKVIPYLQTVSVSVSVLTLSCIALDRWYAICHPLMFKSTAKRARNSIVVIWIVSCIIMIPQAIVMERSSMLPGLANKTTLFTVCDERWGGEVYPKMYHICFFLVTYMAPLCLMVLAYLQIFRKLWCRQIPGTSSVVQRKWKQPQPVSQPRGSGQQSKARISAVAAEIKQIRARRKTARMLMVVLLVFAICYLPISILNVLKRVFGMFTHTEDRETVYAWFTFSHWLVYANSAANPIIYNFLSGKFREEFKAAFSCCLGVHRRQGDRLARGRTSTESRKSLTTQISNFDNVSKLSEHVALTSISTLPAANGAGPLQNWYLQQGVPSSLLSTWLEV

Rattus norvegicus [39] = assay: Hypnotic activity in po dosed CD rat Circadian time model assessed as rapid eye movement sleep administered during active phase measured from starting time CT18; format: functional, organism-based

O=C(NC[C@@H]1CCCCN1C(=O)c1ccccc1-c1ccccc1)Nc1ccccc1
Ki (Orexin receptor type 2 [1]): 5.01 nM | Ki [2]: 1 nM

O=C(c1cccc2ccccc12)N1CCCC[C@H]1CCOc1ccc(F)cc1
Ki (Orexin receptor type 2 [1]): 126 nM | Ki [2]: 6.31 nM

Cc1nc(C(=O)N2CCCC[C@H]2CNC(=O)c2cccc3occc23)c(-c2ccc(F)cc2)s1 [SB-649868]
Kp at 1 h [3]: 0.1 | Time (Rattus norvegicus [4]): 99.3 min | Time (Rattus norvegicus [5]): 194 min | Time (Rattus norvegicus [6]): 186.6 min | Cmax [7]: 333 ng/mL | Activity (Rattus norvegicus [8]): Dose-dependent effect | Ki [9]: 0.117 nM | bioavailability [10]: 85% | Time (Rattus norvegicus [11]): 6.5 min | Ki (Orexin receptor type 2 [12]): 1.29 nM | Time (Rattus norvegicus [13]): 11.6 min | fraction unbound at 1 h [14]: 0.0528 | Time (Rattus norvegicus [15]): 24.1 min | Activity (Rattus norvegicus [16]): Non-toxic | Time (Rattus norvegicus [17]): 8.3 min | Time (Rattus norvegicus [18]): 30.1 min | Time (Rattus norvegicus [19]): 117 min | Time (Rattus norvegicus [20]): 26.6 min | Time (Rattus norvegicus [21]): 19 min | Activity [22]: inactive | Time (Rattus norvegicus [23]): 17.7 min | Time (Rattus norvegicus [24]): 13.8 min | half-life [25]: < 36 min | Vd [26]: 1.1 L/kg | fraction unbound at 1 h [27]: 0.0134 | Time (Rattus norvegicus [28]): 165.2 min | clearance [29]: 24 mL/min/kg | Activity (Rattus norvegicus [30]): Dose-dependent effect | Time (Rattus norvegicus [31]): 182 min | Time (Rattus norvegicus [32]): 87 min | Activity (Rattus norvegicus [33]): Non-toxic | Activity (Rattus norvegicus [34]): Dose-dependent effect | Ki [35]: 0.759 nM | Activity [36]: inactive | CL (Liver microsomes): 15.1 mL/min/g | Activity (Rattus norvegicus [37]): Dose-dependent effect | Ki (Orexin receptor type 2 [38]): 0.0776 nM | Activity (Rattus norvegicus [39]): Dose-dependent effect

O=C(NC[C@@H]1CCCCN1C(=O)c1ccccc1-c1ccccc1)c1ccccc1
Ki (Orexin receptor type 2 [1]): 20 nM | Ki [2]: 7.94 nM

O=C(C[C@@H]1CCCCN1C(=O)c1ccccc1-c1ccccc1)Nc1ccccc1
Ki (Orexin receptor type 2 [1]): 31.6 nM | Ki [2]: 50.1 nM

Cc1ccc(-c2nc3ccc(C)cn3c2CC(=O)N(C)C)cc1 [ZOLPIDEM]
Activity (Rattus norvegicus [16]): Toxic | Activity (Rattus norvegicus [33]): Toxic

O=C(c1ccccc1-c1ccccc1)N1CCCC[C@H]1CCOc1ccc(F)cc1F
Ki (Orexin receptor type 2 [1]): 0.794 nM | Ki [2]: 0.158 nM

N#Cc1cccc(C(=O)N2CCCCC2CCOc2ccc(Cl)c(Cl)c2)c1 (racemic)
Ki (Orexin receptor type 2 [1]): 631 nM | Ki [2]: 398 nM
